Measurements published in patent US8796330B2, “Inhibitors of histone deacetylase and prodrugs thereof” (Methylgene Inc., priority 2006, dated 2014).
In brackets after ≈: the same amount, converted by molar mass. Read-outs that look alike come from different tables or passages of the source.

What was measured:
[1] = tested on: histone deacetylase in nuclear extracts from H446 cells (pooled HDACs); test: Inhibition of histone deacetylase in H446 nuclear extracts ([3H]-acetylated histone substrate); type: biochemical, human
[2] = target: recombinant human HDAC-1 enzyme (rHDAC-1) (Homo sapiens (Human), UniProt Q13547); test: Inhibition of recombinant human HDAC-1 ([3H]-acetylated histone substrate); type: biochemical
Solubility = type: physicochemical
rHDAC-1 = rHDAC-1 (Homo sapiens (Human), UniProt Q13547); test: Fluorogenic Boc-Lys(Ac)-AMC deacetylase assay (Table 4a), rHDAC-1; type: biochemical; settings: for IC50: Boc-Lys(Ac)-AMC substrate, PI values = IC50 at maximum % inhibition reached; for rHDAC-1 partial inhibition (maximum % inhibition reached): PI = 100% inhibition not reached
Method: (§1) Alternatively (Table 4a), the following protocol is used to assay the compounds of the invention. In the assay, the buffer used is 25 mM HEPES, pH 8.0, 137 mM NaCl, 2.7 mM KCl, 1 mM MgCl2 and the substrate is Boc-Lys(Ac)-AMC in a 50 mM stock solution in DMSO. The enzyme stock solution is 4.08 μg/mL in buffer. The compounds are pre-incubated (2 μl in DMSO diluted to 13 μl in buffer for transfer to assay plate) with enzyme (20 μl of 4.08 μg/ml) for 10 minutes at room temperature (35 μl pre-incubation volume). The mixture is pre-incubated for 5 minutes at room temperature. The reaction is started by bringing the temperature to 37° C. and adding […] substrate. Total reaction volume is 50 μl. […] A plate is incubated in the dark for 10 minutes at room temperature before reading (λEx=360 nm, λEm=470 nm, Cutoff filter at 435 nm).

rHDAC-8 = rHDAC-8 (Homo sapiens (Human), UniProt Q9BY41); test: Fluorogenic Boc-Lys(Ac)-AMC deacetylase assay (Table 4a), rHDAC-8; type: biochemical; settings: for IC50: Boc-Lys(Ac)-AMC substrate, PI values = IC50 at maximum % inhibition reached; for rHDAC-8 partial inhibition (maximum % inhibition reached): PI = 100% inhibition not reached
Method: as §1

[3] = Table 4, recombinant human HDAC-1
[4] = Milli-Q purified water, read-out: Solubility Water
[5] = pH 2, simulated gastric fluid, read-out: Solubility pH 2

recombinant human HDAC-1 enzyme (rHDAC-1), sequence (Q13547 whole entry): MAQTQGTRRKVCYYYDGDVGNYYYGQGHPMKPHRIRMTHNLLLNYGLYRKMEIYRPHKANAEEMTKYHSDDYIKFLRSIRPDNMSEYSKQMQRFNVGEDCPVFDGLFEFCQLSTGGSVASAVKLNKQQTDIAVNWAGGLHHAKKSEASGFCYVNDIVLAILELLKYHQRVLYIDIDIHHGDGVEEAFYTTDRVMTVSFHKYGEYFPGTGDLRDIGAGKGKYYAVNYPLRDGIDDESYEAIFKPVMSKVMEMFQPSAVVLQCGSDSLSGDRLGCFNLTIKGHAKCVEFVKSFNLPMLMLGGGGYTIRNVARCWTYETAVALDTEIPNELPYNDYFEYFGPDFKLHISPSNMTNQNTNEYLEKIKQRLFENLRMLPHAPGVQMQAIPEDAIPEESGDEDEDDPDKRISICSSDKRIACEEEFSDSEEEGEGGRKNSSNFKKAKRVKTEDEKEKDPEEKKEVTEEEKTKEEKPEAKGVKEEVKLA
rHDAC-1, sequence (Q13547 whole entry): as above
rHDAC-8, sequence (Q9BY41 whole entry): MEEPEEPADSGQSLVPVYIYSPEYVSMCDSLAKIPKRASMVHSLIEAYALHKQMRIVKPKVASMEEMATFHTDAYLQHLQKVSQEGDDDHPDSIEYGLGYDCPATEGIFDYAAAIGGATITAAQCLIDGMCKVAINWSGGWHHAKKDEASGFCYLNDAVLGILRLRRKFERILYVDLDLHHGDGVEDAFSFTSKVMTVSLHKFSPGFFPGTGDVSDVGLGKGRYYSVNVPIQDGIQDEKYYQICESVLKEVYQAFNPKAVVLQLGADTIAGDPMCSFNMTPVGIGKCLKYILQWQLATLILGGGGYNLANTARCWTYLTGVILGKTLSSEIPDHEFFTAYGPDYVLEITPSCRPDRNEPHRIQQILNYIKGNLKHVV

| Structure (SMILES) | IC50 ([1]; H446 nuclear extract) | IC50 [2, 3] | other results |
| --- | --- | --- | --- |
| O=C(NO)c1ccc(CCSc2ccccc2)cc1 [Compound 70, N-Hydroxy-4-(2-thiophenyl)-ethyl benzamide] |  |  | IC50 [1]: 5.5 µM; IC50 [2]: 0.9 µM |
| O=C(CCc1ccc(CCCc2ccccc2)cc1)NO [Compound 77, N-Hydroxy-3-[4-(3-phenylpropyl)-phenyl]-propanamide] |  | 0.65 µM |  |
| O=C(/C=C/c1ccc(NS(=O)(=O)c2ccccn2)cc1)NO [Compound 96] |  |  | pooled HDACs percent inhibition ([1]; H446 nuclear extract, @ 5 μM): 33% @ 5 μM |
| O=C(/C=C/c1ccc(NS(=O)(=O)c2cccnc2)cc1)NO [Compound 104] |  |  | pooled HDACs percent inhibition ([1]; H446 nuclear extract, @ 5 μM): 21% @ 5 μM |
| Nc1ccccc1NC(=O)/C=C/c1ccc(CC(=O)c2ccccc2)o1 [Compound 139] |  |  | pooled HDACs percent inhibition ([1]; H446 nuclear extract, @ 20 μM): 44% @ 20 μM |
| O=C(CCc1ccc(CC(=O)c2ccccc2)o1)NO [Compound 143] |  |  | pooled HDACs percent inhibition ([1]; H446 nuclear extract, @ 20 μM): 55% @ 20 μM |
| Nc1ccccc1NC(=O)CCc1ccc(CC(=O)c2ccccc2)o1 [Compound 144] |  |  | pooled HDACs percent inhibition ([1]; H446 nuclear extract, @ 20 μM): 6% @ 20 μM |
| O=C(NO)c1ccc(CCCC(O)c2ccc3ccccc3c2)cc1 (centres unmarked) [Compound 149] |  |  | pooled HDACs percent inhibition ([1]; H446 nuclear extract, @ 20 μM): 8% @ 20 μM |
| O=C(NO)c1ccc(CCc2ccccc2)cc1 [Compound 150] | 10 µM |  |  |
| O=C(NO)c1ccc(CCCCCc2ccccc2)cc1 [Compound 153] | 5 µM |  |  |
| O=C(CCCc1ccc(CCCc2ccccc2)cc1)NO [Compound 155] |  |  | pooled HDACs percent inhibition ([1]; H446 nuclear extract, @ 20 μM): 39% @ 20 μM |
| O=C(CCCc1ccc(CCCCc2ccccc2)cc1)NO [Compound 156] | 5 µM |  |  |
| O=C(CCc1ccc(CCc2ccccc2)cc1)NO [Compound 157] | 6 µM |  |  |
| O=C(Cc1ccc(CCCS(=O)(=O)c2ccccc2)cc1)NO [Compound 158] | > 20 µM |  |  |
| Nc1ccccc1NC(=O)/C=C/C#Cc1cccc(NS(=O)(=O)c2ccccc2)c1 [Compound 168] |  |  | pooled HDACs percent inhibition ([1]; H446 nuclear extract, @ 20 μM): 0% @ 20 μM |
| CN(C)c1ccc(CCc2ccc(C(=O)NO)cc2)cc1 [Compound 172] | 10 µM |  |  |

| Structure (SMILES) | IC50 ([1]; H446 nuclear extract) | IC50 [2, 3] | other results |
| --- | --- | --- | --- |
| CN(C)c1ccc(CCc2ccccc2C(=O)NO)cc1 [Compound 173] |  |  | pooled HDACs percent inhibition ([1]; H446 nuclear extract, @ 20 μM): 35% @ 20 μM |
| O=C(Cc1ccc(CCCCc2ccccc2)cc1)NO [Compound 174, N-hydroxy-2-(4-(4-phenylbutyl)phenyl)acetamide] | > 20 µM |  |  |
| CC(C)(N)C(=O)ONC(=O)Cc1ccc(CCCCc2ccccc2)cc1.Cl [Compound 174f, N-(2-amino-2-methylpropanoyloxy)-2-(4-(4-phenylbutyl)phenyl)acetamide hydrochloride] |  |  | solubility (Solubility; [4]): 5 µM; solubility (Solubility; [5]): 4 µM |
| Cl.NCC1(C(=O)ONC(=O)Cc2ccc(CCCCc3ccccc3)cc2)CC1 [Compound 174g, N-(1-(aminomethyl)cyclopropanecarbonyloxy)-2-(4-(4-phenylbutyl)phenyl)acetamide hydrochloride] |  |  | solubility (Solubility; [4]): 195 µM; solubility (Solubility; [5]): 132 µM |
| O=C(Cc1ccc(CCCc2ccccc2)cc1)NO [Compound 175] | > 2 µM |  |  |
| O=C(CCC1CCC(CC(=O)c2ccccc2)O1)NO (centres unmarked) [Compound 176] |  |  | pooled HDACs percent inhibition ([1]; H446 nuclear extract, @ 20 μM): 20% @ 20 μM |
| O=C(CCCc1ccc(C(=O)NO)cc1)c1ccccc1 [Compound 177] |  |  | pooled HDACs percent inhibition ([1]; H446 nuclear extract, @ 20 μM): 10% @ 20 μM |
| Nc1ccccc1NC(=O)c1ccc(CC(=O)c2ccccc2)o1 [Compound 178] |  | > 20 µM | pooled HDACs percent inhibition ([1]; H446 nuclear extract, @ 20 μM): 2% @ 20 μM |
| O=C(Cc1ccc(CCCCc2cc(F)c(F)cc2F)cc1)NO [Compound 179, N-hydroxy-2-(4-(4-(2,4,5-trifluorophenyl)butyl)phenyl)acetamide] |  |  | IC50 (rHDAC-1): 0.5 µM; IC50 (rHDAC-8): 0.53 µM |
| O=C(Cc1ccc(CCCCc2ccc(C(F)(F)F)cc2)cc1)NO [Compound 182, N-hydroxy-2-(4-(4-(4-(trifluoromethyl)phenyl)butyl)phenyl)acetamide] |  |  | IC50 (rHDAC-1): 0.7 µM; rHDAC-1 partial inhibition (maximum % inhibition reached) (rHDAC-1): 64%; IC50 (rHDAC-8): 1.3 µM; rHDAC-8 partial inhibition (maximum % inhibition reached) (rHDAC-8): 74% |
| O=C(Cc1ccc(CCCCc2ccc3[nH]ccc3c2)cc1)NO [Compound 183, 2-(4-(4-(1H-indol-5-yl)butyl)phenyl)-N-hydroxyacetamide] |  |  | IC50 (rHDAC-1): 0.38 µM; IC50 (rHDAC-8): 0.41 µM |
| O=C(Cc1ccc(CCCCc2cccc(C(F)(F)F)c2)cc1)NO [Compound 184, N-hydroxy-2-(4-(4-(3-(trifluoromethyl)phenyl)butyl)phenyl)acetamide] |  |  | IC50 (rHDAC-1): 0.93 µM; IC50 (rHDAC-8): 0.4 µM; rHDAC-8 partial inhibition (maximum % inhibition reached) (rHDAC-8): 79% |
| O=C(Cc1ccc(CCCCc2ccccc2C(F)(F)F)cc1)NO [Compound 185, N-hydroxy-2-(4-(4-(2-(trifluoromethyl)phenyl)butyl)phenyl)acetamide] |  |  | IC50 (rHDAC-1): 0.84 µM; IC50 (rHDAC-8): 0.61 µM |
| O=C(Cc1ccc(CCCCc2ccc3c(c2)OCO3)cc1)NO [Compound 187, 2-(4-(4-(benzo[d][1,3]dioxol-5-yl)butyl)phenyl)-N-hydroxyacetamide] |  |  | IC50 (rHDAC-1): 0.2 µM; rHDAC-1 partial inhibition (maximum % inhibition reached) (rHDAC-1): 62%; IC50 (rHDAC-8): 0.21 µM |
| O=C(Cc1ccc(CCCCc2ccccc2)cc1)NO [H] |  |  | solubility (Solubility; [4]): 3 µM (≈ 0.85 µg/mL); solubility (Solubility; [5]): 3 µM (≈ 0.85 µg/mL) |

Now from value to compound, other results behind:

| IC50 ([1]; H446 nuclear extract) | IC50 [2, 3] | Structure (SMILES) | other results |
| --- | --- | --- | --- |
| 2 µM | 0.3 µM | O=C(CCCCc1ccc(NS(=O)(=O)c2ccccc2)cc1)NO [Compound 34] |  |
| 0.75 µM | 0.1 µM | O=C(CCc1ccc(NS(=O)(=O)c2ccccc2)cc1)NO [Compound 38, N-Hydroxy-3-[4-(benzenesulfonylamino)-phenyl]-2-propanamide] |  |
| > 50 µM | > 25 µM | CC(C)C(Cc1ccc(NS(=O)(=O)c2ccccc2)cc1)C(=O)NO (centres unmarked) [Compound 81] |  |
| 3 µM | 0.6 µM | O=C(/C=C/c1ccc(NS(=O)(=O)c2cccs2)cc1)NO [Compound 87] |  |
| 0.35 µM |  | O=C(/C=C/c1ccc(NS(=O)(=O)c2cccc3ccccc23)cc1)NO [Compound 93] |  |
| 0.4 µM | 0.03 µM | O=C(/C=C/c1ccc(NS(=O)(=O)c2ccc3ccccc3c2)cc1)NO [Compound 94] |  |
| 0.8 µM | 0.2 µM | O=C(/C=C/c1ccc(NS(=O)(=O)c2cc3ccccc3s2)cc1)NO [Compound 95] |  |
| 0.8 µM | 0.28 µM | CN(C)c1cccc2c(S(=O)(=O)Nc3ccc(/C=C/C(=O)NO)cc3)cccc12 [Compound 97] |  |
|  | 0.06 µM | COc1ccc(NS(=O)(=O)c2ccc(/C=C/C(=O)NO)cc2)cc1OC [Compound 98] |  |
| 0.9 µM |  | O=C(/C=C/c1ccc(NS(=O)(=O)c2cccc3cccnc23)cc1)NO [Compound 99] |  |
| 0.8 µM | 0.75 µM | O=C(/C=C/c1ccc(NS(=O)(=O)Cc2ccccc2)cc1)NO [Compound 100] |  |
| 0.3 µM | 0.04 µM | O=C(/C=C/c1ccc(NS(=O)(=O)c2ccc3oc4ccccc4c3c2)cc1)NO [Compound 101] |  |
| 0.7 µM | 0.05 µM | O=C(/C=C/c1ccc(NS(=O)(=O)c2ccc(-c3cccs3)s2)cc1)NO [Compound 103] |  |
| 0.8 µM | 0.3 µM | O=C(/C=C/c1ccc(NS(=O)(=O)c2ccc(Cl)cc2Cl)cc1)NO [Compound 106] |  |
|  | 0.3 µM | Cc1ccc(S(=O)(=O)Nc2ccc(/C=C/C(=O)NO)cc2)cc1 [Compound 108] | pooled HDACs percent inhibition ([1]; H446 nuclear extract, @ 1 μM): 10% @ 1 μM |
|  | 0.12 µM | O=C(/C=C/c1ccc(NS(=O)(=O)c2ccc(Cl)c(Cl)c2)cc1)NO [Compound 109] | pooled HDACs percent inhibition ([1]; H446 nuclear extract, @ 1 μM): 32% @ 1 μM |
| 0.7 µM | 0.55 µM | CC(C)c1cc(C(C)C)c(S(=O)(=O)Nc2ccc(/C=C/C(=O)NO)cc2)c(C(C)C)c1 [Compound 110] |  |
| 0.4 µM | 0.095 µM | O=C(/C=C/c1ccc(NS(=O)(=O)c2cc(Cl)cc(Cl)c2O)cc1)NO [Compound 111] |  |
|  | 0.2 µM | COc1ccc(S(=O)(=O)Nc2ccc(/C=C/C(=O)NO)cc2)cc1 [Compound 113] | pooled HDACs percent inhibition ([1]; H446 nuclear extract, @ 1 μM): 46% @ 1 μM |
|  | 4 µM | COc1ccc(S(=O)(=O)Nc2ccc(/C=C/C(=O)Nc3ccccc3N)cc2)cc1OC [Compound 116] |  |
|  | 1 µM | Nc1ccccc1NC(=O)/C=C/c1ccc(NS(=O)(=O)c2ccc(-c3ccccc3)cc2)cc1 [Compound 123] |  |
|  | 3 µM | Nc1ccccc1NC(=O)C#Cc1ccc(NS(=O)(=O)c2ccc(-c3ccccc3)cc2)cc1 [Compound 129] |  |
| 9 µM |  | O=C(/C=C/c1ccc(CC(O)c2ccccc2)o1)NO (centres unmarked) [Compound 136] |  |
| 3.8 µM |  | O=C(/C=C/c1ccc(NC(=O)Nc2ccc(Cl)cc2)cc1)NO [Compound 145] |  |
| 2.9 µM |  | O=C(/C=C/c1ccc(NC(=O)Nc2cccc3ccccc23)cc1)NO [Compound 146] |  |
| 1.9 µM |  | COc1ccc(NC(=O)Nc2ccc(/C=C/C(=O)NO)cc2)cc1OC [Compound 147] |  |
| 5 µM |  | O=C(NO)c1ccc(CCCS(=O)(=O)c2ccccc2)cc1 [Compound 148] |  |
| 7.5 µM |  | O=C(NO)c1ccc(/C=C/c2ccccc2)cc1 [Compound 151] |  |
|  | 0.04 µM | O=C(/C=C/c1ccc(S(=O)(=O)Nc2ccc(-c3ccccc3)cc2)cc1)NO [Compound 162] |  |
| 20 µM |  | CN(C)c1ccc(CCc2ccc(C(=O)NO)s2)cc1 [Compound 171] |  |
